Reference: ChEMBL document CHEMBL1938230, “6-Position optimization of tricyclic 4-quinolone-based inhibitors of glycogen synthase kinase-3β: discovery of nitrile derivatives with picomolar potency” (Bioorg Med Chem Lett, 2012)

What was measured:
[1] = target: Mitogen-activated protein kinase kinase kinase 20 (Homo sapiens) (UniProt Q9NYL2); test: Inhibition of human ZAK in HL-60 cells lysate assessed as reduction of labeling of acyl-phosphate ATP probe at 100 nM; format: cell-free
[2] = target: T1, STE20-related kinase adapter protein alpha (Homo sapiens) (UniProt Q7RTN6); test: Inhibition of human STLK5 in HL-60 cells lysate assessed as reduction of labeling of acyl-phosphate ATP probe at 100 nM; format: cell-free
T1 sequence (whole entry): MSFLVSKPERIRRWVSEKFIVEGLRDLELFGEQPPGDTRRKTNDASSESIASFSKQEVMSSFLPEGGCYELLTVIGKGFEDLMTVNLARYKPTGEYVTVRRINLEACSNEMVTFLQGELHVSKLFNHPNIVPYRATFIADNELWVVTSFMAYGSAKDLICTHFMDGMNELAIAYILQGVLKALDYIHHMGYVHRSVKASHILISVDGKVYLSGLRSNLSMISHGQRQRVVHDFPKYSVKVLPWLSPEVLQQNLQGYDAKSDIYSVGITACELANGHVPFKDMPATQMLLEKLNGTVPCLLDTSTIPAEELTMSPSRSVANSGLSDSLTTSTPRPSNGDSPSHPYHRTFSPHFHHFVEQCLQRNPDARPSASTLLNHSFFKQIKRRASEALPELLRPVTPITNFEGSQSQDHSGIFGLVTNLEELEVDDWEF

[3] = target: Mitogen-activated protein kinase 3 (Homo sapiens) (UniProt P27361); test: Inhibition of human Erk1 in HL-60 cells lysate assessed as reduction of labeling of acyl-phosphate ATP probe at 100 nM; format: cell-free
[4] = target: Serine/threonine-protein kinase ATR (Homo sapiens) (UniProt Q13535); test: Inhibition of human ATR in HL-60 cells lysate assessed as reduction of labeling of acyl-phosphate ATP probe at 100 nM; format: cell-free
[5] = target: Serine/threonine-protein kinase/endoribonuclease IRE1 (Homo sapiens) (UniProt O75460); test: Inhibition of human IRE1 in HL-60 cells lysate assessed as reduction of labeling of acyl-phosphate ATP probe at 100 nM; format: cell-free
[6] = target: T2, Inositol-tetrakisphosphate 1-kinase (Homo sapiens) (UniProt Q13572); test: Inhibition of human ITPK1 in HL-60 cells lysate assessed as reduction of labeling of acyl-phosphate ATP probe at 100 nM; format: cell-free
T2 sequence (whole entry): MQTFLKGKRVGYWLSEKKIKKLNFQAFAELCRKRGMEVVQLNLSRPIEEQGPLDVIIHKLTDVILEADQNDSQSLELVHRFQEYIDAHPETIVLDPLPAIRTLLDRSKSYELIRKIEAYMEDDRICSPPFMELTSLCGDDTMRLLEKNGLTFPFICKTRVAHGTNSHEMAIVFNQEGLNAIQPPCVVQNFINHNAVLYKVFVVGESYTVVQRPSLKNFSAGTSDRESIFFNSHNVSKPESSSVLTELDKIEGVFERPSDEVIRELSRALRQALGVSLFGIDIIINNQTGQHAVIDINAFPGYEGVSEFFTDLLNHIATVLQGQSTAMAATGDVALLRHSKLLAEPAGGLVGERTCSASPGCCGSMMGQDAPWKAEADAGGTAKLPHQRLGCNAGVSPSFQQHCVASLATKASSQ

HL-60 [7] = test: Inhibition of human TAO1/TAO3 in HL-60 cells lysate assessed as reduction of labeling of acyl-phosphate ATP probe at 100 nM
HL-60 [8] = test: Inhibition of human Wnk1/Wnk2/Wnk3 in HL-60 cells lysate assessed as reduction of labeling of acyl-phosphate ATP probe at 100 nM
[9] = target: Phosphatidylinositol 4-kinase beta (Homo sapiens) (UniProt Q9UBF8); test: Inhibition of human PI4KB in HL-60 cells lysate assessed as reduction of labeling of acyl-phosphate ATP probe at 100 nM; format: cell-free
HL-60 [10] = test: Inhibition of human PITSLRE in HL-60 cells lysate assessed as reduction of labeling of acyl-phosphate ATP probe at 100 nM
[11] = target: T3, Phosphatidylinositol 5-phosphate 4-kinase type-2 gamma (Homo sapiens) (UniProt Q8TBX8); test: Inhibition of human PIP4K2C in HL-60 cells lysate assessed as reduction of labeling of acyl-phosphate ATP probe at 100 nM; format: cell-free
T3 sequence (whole entry): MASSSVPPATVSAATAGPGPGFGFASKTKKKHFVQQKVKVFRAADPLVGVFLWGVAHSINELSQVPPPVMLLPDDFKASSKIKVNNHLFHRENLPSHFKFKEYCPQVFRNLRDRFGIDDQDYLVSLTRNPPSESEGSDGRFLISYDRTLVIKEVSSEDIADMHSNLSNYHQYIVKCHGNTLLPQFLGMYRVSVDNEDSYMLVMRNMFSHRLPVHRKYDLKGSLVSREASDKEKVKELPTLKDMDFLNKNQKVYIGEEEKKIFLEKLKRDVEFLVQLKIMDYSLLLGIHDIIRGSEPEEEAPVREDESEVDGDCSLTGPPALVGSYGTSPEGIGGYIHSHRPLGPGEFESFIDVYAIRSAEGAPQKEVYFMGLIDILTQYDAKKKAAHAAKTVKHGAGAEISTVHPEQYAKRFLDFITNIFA

[12] = target: T4, Inhibitor of nuclear factor kappa-B kinase subunit alpha (Homo sapiens) (UniProt O15111); test: Inhibition of human IKKalpha in HL-60 cells lysate assessed as reduction of labeling of acyl-phosphate ATP probe at 100 nM; format: cell-free
T4 sequence (whole entry): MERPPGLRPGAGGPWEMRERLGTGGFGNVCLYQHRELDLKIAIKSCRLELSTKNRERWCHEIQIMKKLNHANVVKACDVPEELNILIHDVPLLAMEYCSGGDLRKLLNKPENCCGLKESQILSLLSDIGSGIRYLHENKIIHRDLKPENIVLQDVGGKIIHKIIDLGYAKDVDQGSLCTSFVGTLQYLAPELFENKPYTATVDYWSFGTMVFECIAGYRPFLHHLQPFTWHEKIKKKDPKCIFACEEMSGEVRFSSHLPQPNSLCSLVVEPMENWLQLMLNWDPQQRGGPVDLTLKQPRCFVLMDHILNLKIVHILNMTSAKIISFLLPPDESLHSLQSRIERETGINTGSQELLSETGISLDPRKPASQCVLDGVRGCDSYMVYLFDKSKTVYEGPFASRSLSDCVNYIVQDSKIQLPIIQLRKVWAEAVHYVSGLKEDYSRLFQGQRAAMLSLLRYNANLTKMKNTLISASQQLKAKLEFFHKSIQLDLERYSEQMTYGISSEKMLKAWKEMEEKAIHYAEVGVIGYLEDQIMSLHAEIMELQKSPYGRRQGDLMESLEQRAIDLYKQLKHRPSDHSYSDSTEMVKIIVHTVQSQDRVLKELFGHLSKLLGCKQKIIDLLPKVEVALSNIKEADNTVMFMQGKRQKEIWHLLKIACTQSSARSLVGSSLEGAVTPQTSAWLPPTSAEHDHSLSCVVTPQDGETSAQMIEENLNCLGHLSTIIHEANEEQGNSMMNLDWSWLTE

Serine/threonine-protein kinase ATR (Homo sapiens), sequence (Q13535 whole entry, looked up): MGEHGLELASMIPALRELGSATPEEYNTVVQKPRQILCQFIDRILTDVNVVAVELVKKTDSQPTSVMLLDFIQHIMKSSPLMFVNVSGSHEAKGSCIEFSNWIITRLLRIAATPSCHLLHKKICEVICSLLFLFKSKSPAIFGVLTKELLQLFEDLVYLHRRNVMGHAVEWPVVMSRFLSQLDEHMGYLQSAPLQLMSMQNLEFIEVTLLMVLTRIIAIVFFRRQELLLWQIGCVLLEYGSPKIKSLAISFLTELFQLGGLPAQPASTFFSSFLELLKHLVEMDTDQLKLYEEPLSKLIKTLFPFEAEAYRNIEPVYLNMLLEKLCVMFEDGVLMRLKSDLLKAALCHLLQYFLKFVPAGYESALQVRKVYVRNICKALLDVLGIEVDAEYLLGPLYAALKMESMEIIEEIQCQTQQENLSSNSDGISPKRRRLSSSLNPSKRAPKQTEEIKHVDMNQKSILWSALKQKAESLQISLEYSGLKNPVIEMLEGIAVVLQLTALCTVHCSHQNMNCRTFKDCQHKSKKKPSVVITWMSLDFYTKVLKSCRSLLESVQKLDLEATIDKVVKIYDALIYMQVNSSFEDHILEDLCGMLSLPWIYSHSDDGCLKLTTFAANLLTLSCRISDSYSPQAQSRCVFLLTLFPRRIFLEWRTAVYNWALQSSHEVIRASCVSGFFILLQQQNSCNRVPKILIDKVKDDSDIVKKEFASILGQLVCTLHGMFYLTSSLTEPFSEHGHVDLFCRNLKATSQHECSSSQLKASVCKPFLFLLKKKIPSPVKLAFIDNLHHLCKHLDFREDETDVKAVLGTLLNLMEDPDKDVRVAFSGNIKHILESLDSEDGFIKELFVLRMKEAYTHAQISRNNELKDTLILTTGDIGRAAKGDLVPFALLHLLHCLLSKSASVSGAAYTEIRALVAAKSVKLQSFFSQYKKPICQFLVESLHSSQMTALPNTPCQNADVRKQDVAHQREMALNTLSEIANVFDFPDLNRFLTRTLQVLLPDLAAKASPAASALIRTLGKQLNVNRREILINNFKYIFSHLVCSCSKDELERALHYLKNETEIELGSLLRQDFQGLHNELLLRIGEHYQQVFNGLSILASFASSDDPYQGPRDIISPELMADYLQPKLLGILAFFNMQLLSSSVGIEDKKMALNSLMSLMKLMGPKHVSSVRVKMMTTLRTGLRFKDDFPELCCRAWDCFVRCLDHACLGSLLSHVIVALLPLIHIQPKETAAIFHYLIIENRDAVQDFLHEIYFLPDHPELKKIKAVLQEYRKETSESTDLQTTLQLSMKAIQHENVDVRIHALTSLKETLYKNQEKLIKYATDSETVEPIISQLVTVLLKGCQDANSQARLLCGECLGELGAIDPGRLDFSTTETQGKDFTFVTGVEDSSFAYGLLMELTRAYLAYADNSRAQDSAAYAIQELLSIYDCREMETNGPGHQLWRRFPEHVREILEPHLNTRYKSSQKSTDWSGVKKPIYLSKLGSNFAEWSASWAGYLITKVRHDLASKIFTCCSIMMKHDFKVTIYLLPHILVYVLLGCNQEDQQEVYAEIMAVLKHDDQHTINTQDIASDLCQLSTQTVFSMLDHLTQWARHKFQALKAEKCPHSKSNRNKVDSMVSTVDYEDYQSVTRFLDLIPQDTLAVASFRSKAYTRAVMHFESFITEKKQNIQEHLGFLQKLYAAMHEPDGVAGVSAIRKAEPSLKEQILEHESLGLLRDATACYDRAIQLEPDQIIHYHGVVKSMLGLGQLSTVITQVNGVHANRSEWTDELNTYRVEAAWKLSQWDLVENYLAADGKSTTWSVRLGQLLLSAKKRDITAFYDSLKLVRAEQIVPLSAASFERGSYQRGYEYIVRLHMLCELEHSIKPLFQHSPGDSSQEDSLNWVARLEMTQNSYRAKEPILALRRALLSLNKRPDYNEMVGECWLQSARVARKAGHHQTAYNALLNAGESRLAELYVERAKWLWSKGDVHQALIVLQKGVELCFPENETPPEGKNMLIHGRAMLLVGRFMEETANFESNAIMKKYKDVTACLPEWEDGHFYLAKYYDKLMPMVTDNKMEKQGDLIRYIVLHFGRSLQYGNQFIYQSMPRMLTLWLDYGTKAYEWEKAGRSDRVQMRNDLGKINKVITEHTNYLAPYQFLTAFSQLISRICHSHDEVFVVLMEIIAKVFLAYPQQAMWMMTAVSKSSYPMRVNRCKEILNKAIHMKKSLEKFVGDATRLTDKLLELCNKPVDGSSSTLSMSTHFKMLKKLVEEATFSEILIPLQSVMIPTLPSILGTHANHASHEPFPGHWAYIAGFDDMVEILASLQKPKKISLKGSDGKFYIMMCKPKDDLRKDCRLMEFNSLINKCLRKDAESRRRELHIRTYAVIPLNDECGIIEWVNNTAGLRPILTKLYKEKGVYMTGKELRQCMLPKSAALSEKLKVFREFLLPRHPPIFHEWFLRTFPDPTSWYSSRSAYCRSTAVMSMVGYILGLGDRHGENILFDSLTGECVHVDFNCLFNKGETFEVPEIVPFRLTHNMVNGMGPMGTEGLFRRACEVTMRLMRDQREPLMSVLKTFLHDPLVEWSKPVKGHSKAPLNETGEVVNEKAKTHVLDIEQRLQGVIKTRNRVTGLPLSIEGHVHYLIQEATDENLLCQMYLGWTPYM
Phosphatidylinositol 4-kinase beta (Homo sapiens), sequence (Q9UBF8 2-816 limits assumed): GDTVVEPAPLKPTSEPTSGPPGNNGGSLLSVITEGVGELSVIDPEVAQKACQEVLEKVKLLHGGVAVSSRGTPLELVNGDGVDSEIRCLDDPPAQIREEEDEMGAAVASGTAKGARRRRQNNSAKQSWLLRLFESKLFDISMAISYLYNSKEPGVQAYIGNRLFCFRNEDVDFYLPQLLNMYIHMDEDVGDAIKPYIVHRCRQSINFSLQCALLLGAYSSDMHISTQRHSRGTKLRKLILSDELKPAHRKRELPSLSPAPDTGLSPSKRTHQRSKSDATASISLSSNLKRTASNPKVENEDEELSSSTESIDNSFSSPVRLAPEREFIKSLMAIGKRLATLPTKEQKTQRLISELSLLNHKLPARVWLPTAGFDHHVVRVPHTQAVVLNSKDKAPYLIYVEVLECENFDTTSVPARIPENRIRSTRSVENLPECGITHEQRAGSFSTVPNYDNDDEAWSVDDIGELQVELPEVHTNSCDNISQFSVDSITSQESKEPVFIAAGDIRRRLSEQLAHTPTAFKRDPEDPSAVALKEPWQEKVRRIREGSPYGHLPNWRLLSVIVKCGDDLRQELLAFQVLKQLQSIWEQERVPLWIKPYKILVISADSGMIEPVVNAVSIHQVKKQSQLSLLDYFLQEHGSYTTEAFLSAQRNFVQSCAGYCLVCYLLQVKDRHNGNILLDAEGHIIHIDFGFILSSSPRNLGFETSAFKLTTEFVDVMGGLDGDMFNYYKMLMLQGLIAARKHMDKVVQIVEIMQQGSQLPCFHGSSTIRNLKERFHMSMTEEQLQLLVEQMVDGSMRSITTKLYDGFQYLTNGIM
Mitogen-activated protein kinase kinase kinase 20 (Homo sapiens), sequence (Q9NYL2 2-800 limits assumed): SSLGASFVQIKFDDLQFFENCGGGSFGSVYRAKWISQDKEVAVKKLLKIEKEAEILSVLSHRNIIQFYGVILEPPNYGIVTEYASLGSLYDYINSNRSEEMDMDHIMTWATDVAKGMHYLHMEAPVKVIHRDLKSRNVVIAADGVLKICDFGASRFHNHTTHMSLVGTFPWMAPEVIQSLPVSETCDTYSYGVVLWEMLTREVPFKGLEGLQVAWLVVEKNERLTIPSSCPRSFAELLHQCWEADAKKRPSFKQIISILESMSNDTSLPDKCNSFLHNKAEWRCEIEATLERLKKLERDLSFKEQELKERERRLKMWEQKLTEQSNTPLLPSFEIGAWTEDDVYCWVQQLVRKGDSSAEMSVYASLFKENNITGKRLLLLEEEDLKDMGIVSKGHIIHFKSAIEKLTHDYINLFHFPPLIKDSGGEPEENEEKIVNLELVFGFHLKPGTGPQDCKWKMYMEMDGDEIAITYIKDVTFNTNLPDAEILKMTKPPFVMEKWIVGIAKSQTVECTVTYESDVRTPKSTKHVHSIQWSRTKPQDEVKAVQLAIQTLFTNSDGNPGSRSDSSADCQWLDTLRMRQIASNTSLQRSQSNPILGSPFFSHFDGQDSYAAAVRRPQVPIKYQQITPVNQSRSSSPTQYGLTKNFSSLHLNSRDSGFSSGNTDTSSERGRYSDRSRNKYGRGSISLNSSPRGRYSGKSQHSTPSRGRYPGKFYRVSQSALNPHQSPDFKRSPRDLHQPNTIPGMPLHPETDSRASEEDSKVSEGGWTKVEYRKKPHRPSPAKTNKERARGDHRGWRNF
Mitogen-activated protein kinase 3 (Homo sapiens), sequence (P27361 whole entry): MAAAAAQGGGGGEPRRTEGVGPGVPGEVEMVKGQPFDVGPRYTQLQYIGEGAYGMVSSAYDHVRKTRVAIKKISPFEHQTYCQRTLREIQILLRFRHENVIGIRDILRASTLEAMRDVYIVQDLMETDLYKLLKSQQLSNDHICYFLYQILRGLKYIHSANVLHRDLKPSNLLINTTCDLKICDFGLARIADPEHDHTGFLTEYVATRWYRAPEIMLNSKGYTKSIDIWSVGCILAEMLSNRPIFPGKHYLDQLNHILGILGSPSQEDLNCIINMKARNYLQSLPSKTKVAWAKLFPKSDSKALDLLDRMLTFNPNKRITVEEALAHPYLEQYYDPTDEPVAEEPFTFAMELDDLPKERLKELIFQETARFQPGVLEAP

C[C@H]1COc2c(NCCCc3ccccn3)c(F)c(N)c3c(=O)c(C#N)cn1c23
< 35%: inhibition [1] | inhibition [2] | inhibition [3] | inhibition [4] | inhibition [5] | inhibition [6] | inhibition at 0.1 µM (HL-60 [7]) | inhibition at 0.1 µM (HL-60 [8]) | inhibition [9] | inhibition at 0.1 µM (HL-60 [10]) | inhibition [11] | inhibition [12]

C[C@H]1COc2c(NCCCc3ccccn3)c(F)c(N)c3c(=O)c(C(=O)O)cn1c23
< 35%: inhibition [1] | inhibition [2] | inhibition [3] | inhibition [4] | inhibition [5] | inhibition [6] | inhibition at 0.1 µM (HL-60 [7]) | inhibition at 0.1 µM (HL-60 [8]) | inhibition [9] | inhibition at 0.1 µM (HL-60 [10]) | inhibition [11] | inhibition [12]

C[C@H]1COc2c(NCCCn3cccn3)c(F)c(N)c3c(=O)c(C(=O)O)cn1c23
< 35%: inhibition [1] | inhibition [2] | inhibition [3] | inhibition [4] | inhibition [5] | inhibition [6] | inhibition at 0.1 µM (HL-60 [7]) | inhibition at 0.1 µM (HL-60 [8]) | inhibition [9] | inhibition at 0.1 µM (HL-60 [10]) | inhibition [11] | inhibition [12]

C[C@H]1COc2c(NCCCn3cccn3)c(F)c(N)c3c(=O)c(C#N)cn1c23
< 35%: inhibition [1] | inhibition [2] | inhibition [3] | inhibition [4] | inhibition [5] | inhibition [6] | inhibition at 0.1 µM (HL-60 [7]) | inhibition at 0.1 µM (HL-60 [8]) | inhibition [9] | inhibition at 0.1 µM (HL-60 [10]) | inhibition [11] | inhibition [12]
